Earlier results as cited in US8313936B2, “Nucleic acids and polypeptides involved in the production of cryptophycin” (priority 2006, dated 2012).

Conditions: assay not specified; U.S. Publication No. 20020065261

Structure (SMILES): COc1ccc(C[C@H]2NC(=O)/C=C/C[C@@H]([C@H](C)[C@H]3O[C@@H]3c3ccccc3)OC(=O)[C@H](CC(C)C)OC(=O)[C@H](C)CNC2=O)cc1Cl [Cryptophycin 1]
- activity relative to other cryptophycins: the most active natural compound
